Measurements: PubChem BioAssay (NCI)
Where “and” joins values, the source holds several entries; their conditions need not be identical. Equal values may be shown once.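 Dose response: 5 concentrations. Exposure: 48 h. Format: 96-well plates. Endpoint: linear interpolation; highest concentration if not reached. GI50 is the concentration that inhibits growth by half. The concentration for full growth arrest is given as TGI.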

How the values were obtained:
Assay in all cases: growth of human tumour cells (NCI), 48 h
[1] = test system: A498 renal
[2] = test system: HCT-116 colon
[3] = test system: OVCAR-3 ovarian
[4] = test system: M14 melanoma
[5] = test system: TK-10 renal
[6] = test system: KM20L2 colon
[7] = test system: KM12 colon
[8] = test system: OVCAR-8 ovarian
[9] = test system: NCI-H23 lung
[10] = test system: SR leukemia
[11] = test system: RXF 393 renal
[12] = test system: UACC-62 melanoma
[13] = test system: M19-MEL melanoma
[14] = test system: SK-MEL-5 melanoma
[15] = test system: HOP-92 NSCLC
[16] = test system: A549 NSCLC
[17] = test system: HOP-18 NSCLC
[18] = test system: SNB-75 CNS
[19] = test system: SF-539 CNS
[20] = test system: ACHN renal
[21] = test system: MOLT-4 leukemia
[22] = test system: UO-31 renal
[23] = test system: XF 498 CNS
[24] = test system: NCI-H226 lung
[25] = test system: LOX IMVI melanoma
[26] = test system: DLD-1 colon
[27] = test system: IGROV1 ovarian
[28] = test system: NCI-H460 lung
[29] = test system: SNB-78 CNS
[30] = test system: U251 CNS
[31] = test system: NCI-H522 lung
[32] = test system: SN12C renal
[33] = test system: SF-268 CNS
[34] = test system: DMS 114 small cell lung
[35] = test system: SK-MEL-28 melanoma
[36] = test system: LXFL 529 NSCLC
[37] = test system: SF-295 CNS
[38] = test system: SK-OV-3 ovarian
[39] = test system: MALME-3M melanoma
[40] = test system: HL-60(TB) leukemia
[41] = test system: COLO 205 colon
[42] = test system: CCRF-CEM leukemia
[43] = test system: K-562 leukemia
[44] = test system: HT29 colon
[45] = test system: UACC-257 melanoma
[46] = test system: OVCAR-4 ovarian
[47] = test system: EKVX NSCLC
[48] = test system: HCC-2998 colon
[49] = test system: SW-620 colon
[50] = test system: CAKI-1 renal
[51] = test system: 786-0 renal
[52] = test system: HOP-62 NSCLC
[53] = test system: SNB-19 CNS
[54] = test system: HCT-15 colon
[55] = test system: SK-MEL-2 melanoma
[56] = test system: RPMI-8226 leukemia
[57] = test system: DMS 273 small cell lung

SMILES: Cc1c(C(=N)N)oc2ccccc12
- TGI [1]: > 100 µM
- TGI [2]: > 100 µM
- TGI [3]: > 100 µM
- TGI [4]: > 100 µM
- TGI [5]: > 100 µM
- TGI [6]: > 100 µM
- TGI [7]: > 100 µM
- TGI [8]: > 100 µM
- TGI [9]: > 100 µM
- TGI [10]: > 100 µM
- TGI [11]: > 100 µM
- TGI [12]: > 100 µM
- TGI [13]: > 100 µM
- TGI [14]: > 100 µM
- TGI [15]: > 100 µM
- TGI [16]: > 100 µM
- TGI [17]: > 100 µM
- TGI [18]: > 100 µM
- TGI [19]: > 100 µM
- TGI [20]: > 100 µM
- TGI [21]: > 100 µM
- TGI [22]: > 100 µM
- TGI [23]: > 100 µM
- TGI [24]: > 100 µM
- TGI [25]: > 100 µM
- TGI [26]: > 100 µM
- TGI [27]: > 100 µM
- TGI [28]: > 100 µM
- TGI [29]: > 100 µM
- TGI [30]: > 100 µM
- TGI [31]: > 100 µM
- TGI [32]: > 100 µM
- TGI [33]: > 100 µM
- TGI [34]: > 100 µM
- TGI [35]: > 100 µM
- TGI [36]: > 100 µM
- TGI [37]: > 100 µM
- TGI [38]: > 100 µM
- TGI [39]: > 100 µM
- TGI [40]: > 100 µM
- TGI [41]: > 100 µM
- TGI [42]: > 100 µM
- TGI [43]: > 100 µM
- TGI [44]: > 100 µM
- TGI [45]: > 100 µM
- TGI [46]: > 100 µM
- TGI [47]: > 100 µM
- TGI [48]: > 100 µM
- TGI [49]: > 100 µM
- TGI [50]: > 100 µM
- TGI [51]: > 100 µM
- TGI [52]: > 100 µM
- TGI [53]: > 100 µM

SMILES: COc1cc(C2c3cc4c(cc3[C@@H](NCCCN3CCCC3=O)C3COC(=O)[C@H]23)OCO4)cc(OC)c1O (some centres not stated)
- TGI [2]: > 100 µM
- TGI [3]: > 100 µM
- TGI [4]: > 100 µM
- TGI [5]: > 100 µM
- TGI [6]: > 100 µM
- TGI [7]: > 100 µM
- TGI [8]: > 100 µM
- GI50 [9]: 5.27 µM
- TGI [9]: 32.2 µM
- TGI [10]: > 100 µM
- TGI [54]: > 100 µM
- TGI [11]: > 100 µM
- GI50 [12]: 4.03 µM and 0.677 µM
- TGI [12]: 26 µM and > 17.5 µM
- TGI [13]: > 100 µM
- GI50 [14]: 4.21 µM and 0.526 µM
- TGI [14]: 33.5 µM and > 17.5 µM
- TGI [15]: 71.1 µM and > 17.5 µM
- GI50 [16]: 6.23 µM and 1.01 µM
- TGI [16]: 40 µM and > 17.5 µM
- TGI [17]: > 100 µM
- TGI [18]: 6.81 µM
- GI50 [19]: 3.65 µM
- TGI [19]: 21.4 µM
- TGI [20]: 16.5 µM
- TGI [21]: > 100 µM
- TGI [22]: 43.7 µM and > 17.5 µM
- TGI [23]: > 100 µM
- GI50 [24]: 3.38 µM and 1.35 µM
- TGI [24]: 23 µM and 9.53 µM
- GI50 [25]: 8.13 µM and 0.813 µM
- TGI [25]: 33.7 µM and > 17.5 µM
- TGI [55]: > 100 µM
- TGI [26]: > 100 µM
- TGI [27]: > 100 µM
- GI50 [28]: 1.54 µM and 0.58 µM
- TGI [28]: 15.7 µM and > 17.5 µM
- TGI [30]: 63 µM and > 17.5 µM
- GI50 [31]: 5.65 µM
- TGI [31]: 84.3 µM
- TGI [32]: 80.9 µM and > 17.5 µM
- GI50 [33]: 9.24 µM and 1.58 µM
- TGI [33]: > 100 µM
- GI50 [34]: 2.89 µM and 0.701 µM
- TGI [34]: 9.46 µM and > 17.5 µM
- TGI [35]: > 100 µM
- TGI [36]: > 100 µM
- TGI [37]: > 100 µM
- TGI [38]: 39.4 µM
- GI50 [39]: 11 µM
- TGI [39]: > 100 µM
- TGI [41]: > 100 µM
- TGI [56]: > 100 µM
- TGI [42]: > 100 µM
- TGI [43]: > 100 µM
- TGI [44]: > 100 µM
- GI50 [57]: 3.59 µM and 0.476 µM
- TGI [57]: 21.3 µM and > 17.5 µM
- GI50 [46]: > 100 µM
- TGI [46]: > 100 µM
- TGI [47]: > 100 µM
- TGI [48]: 85.7 µM
- TGI [49]: > 100 µM
- TGI [50]: > 100 µM
- TGI [51]: 60.4 µM and > 17.5 µM
- GI50 [52]: 5.45 µM and 0.712 µM
- TGI [52]: 34.3 µM and > 17.5 µM
- GI50 [53]: 38 µM and > 17.5 µM
- TGI [53]: > 100 µM
